Laboratory results from PMC12346692, “SUL-150 Limits Vascular Remodeling and Ventricular Failure in Pulmonary Arterial Hypertension” (International Journal of Molecular Sciences, 2025).
Values joined by “and” are separate entries in the source; they are usually repeats but may differ in a detail not shown here. Equal values may be shown once. Marks after values point to notes of the source that are not given here.

Columns and labels:
Assay type in all cases: in vivo, rat
[1] = system: PGC1α, mtTFA, PINK1, Parkin; test: Immunoblotting of right ventricle for mitogenesis and mitophagy markers; settings: PAH rats, ~6 mg·kg^−1·day^−1 i.p. minipump, 28 days; result in words
Experimental: Protein lysates were prepared from the right ventricle using RIPA buffer (ThermoFisher, Waltham, MA, USA) and supplemented with 0.5% proteinase inhibitor cocktail (Sigma-Aldrich, St. Louis, MO, USA) and 0.5% Halt™ phosphatase inhibitor (ThermoFisher, Waltham, MA, USA). […] Twenty micrograms of total protein per sample was loaded on mini-PROTEAN precast gradient gels (4–15% denaturing SDS–polyacrylamide gel; Bio-Rad, Hercules, CA, USA), separated by gel electrophoresis, and blotted onto nitrocellulose membrane using the Trans-Blot turbo system (Bio-Rad, Hercules, CA, USA) according to standard protocols. Blots were blocked with 5% bovine serum albumin in 20 mM Tris-HCl (pH 7.4) at room temperature for 30 min and incubated at 4 °C overnight with primary antibodies to mtTFA (sc-166965, Santa Cruz Biotechnology, Dallas, TX, USA), PGC1α (NBP1-04676, Bio-Techne, Abingdon, UK), PINK1 (BC100-494, Bio-Techne, Abingdon, UK), Parkin (sc-32282, Santa Cruz Biotechnology, Dallas, TX, USA), or Tubulin (Sigma-Aldrich, St. Louis, MO, USA), all at a dilution of 1:500. Alkaline phosphatase-conjugated secondary antibodies and NBT/BCIP (Bio-Rad, VA, USA) were used for detection. Densitometric analysis was performed using Totallab 120 (Nonlinear Dynamics, Newcastle upon Tyne, UK).

PAH rats [2] = test: In-life data (body weight, discomfort, mortality) during chronic SUL-150 administration; settings: ~6 mg·kg^−1·day^−1 i.p. minipump, 28 days
Experimental: (§1) The administration of vehicle and SUL-150 started 7 days post-monocrotaline injection and was performed by the i.p. implantation of osmotic minipumps (Alzet model #2004, Durect Corp., Cupertino, CA, USA) at the time of aortocaval shunt placement. The Lynch coil method was used to circumvent compatibility issues with the osmotic minipump reservoir as described previously. Vehicle (dimethyl sulfoxide (DMSO) or SUL-150 ((R)-(6-hydroxy-2,5,7,8-tetramethylchroman-2-yl)(piperazin-1-yl)methanone, 0.9 M in DMSO, Sulfateq BV, Groningen, The Netherlands) was administered at a flow rate of 0.25 µL·h^−1, accumulating to an approximate dose of 6 mg·kg^−1·day^−1 SUL-150 in a 300 g rat. Animals were weighed, watched for dyspnea, cyanosis, and oedema, and sacrificed preterm when a 15% weight loss or debilitating dyspnea occurred.
Three rats died during the study without a clear cause at necropsy and were excluded (sham control (n = 1) and vehicle-treated (n = 2) rats). At sacrifice, 7 rats were excluded from the study because of procedural motives: in two rats (vehicle (n = 1) and SUL-150-treated (n = 1) rats), adequate AC shunt could not be confirmed. In two other rats (both SUL-150-treated rats), the osmotic pumps were blocked by adipose deposits, limiting their function. Three rats died during cardiac function assessment (sham control (n = 2) and SUL-150 treated (n = 1) rats). Twenty rats were included in the study (sham control (n = 7), vehicle-treated (n = 7), and SUL-150-treated (n = 6) rats.

PAH rats [3] = test: Echocardiogram and hemodynamic measurements in monocrotaline + aortocaval shunt PAH rats; set-up: LVOT VTI / PV Acceleration slope: unit not given here
Experimental: Animal care and experiments were approved by the Institutional Animal Care and Use Committee (CCD # AVD105002015129) and in accordance with the ARRIVE guidelines. Forty (40) male Wistar rats (Harlan, 7–9 weeks old, weighing 276 ± 15 g) were used. PAH was induced by a single i.p. injection of monocrotaline (60 mg·kg^−1) and the placement of an aortocaval shunt one week later as described previously.
as §1
Echocardiographic (ECG) examination was performed under isoflurane anesthesia (5% in air during induction, 2% in air during maintenance) via inhalation prior to euthanisation using a Vivid Dimension 7 system and 10S-transducer (GE Healthcare, Waukesha, WI, USA). Ventricular dimensions, eccentricity index, and flow profiles over the aortic, pulmonary, and tricuspid valves were measured in standard views. Cardiac output (mL·min^−1) was calculated using the following equation: CO(mL·min^−1)=(LVOTarea×LVOTVTI)×HR , wherein LVOT area is the area of the left ventricular outflow tract, LVOT VTI is the velocity-time integral and HR is heart rate. Subsequent to ECG, invasive hemodynamic measurements were performed using a closed chest technique as described by others. A fluid-filled pressure catheter was inserted into the right internal jugular vein and guided to the pulmonary artery under pressure waveform monitoring using a bedside monitor. Right ventricular systolic and diastolic pressure, pulmonary arterial pressures, and pulmonary wedge pressure were measured. Mean pulmonary arterial pressure (mmHg) was calculated as: mPAP(mmHg)=(2/3dPAP+1/3sPAP) , wherein dPAP and sPAP are diastolic and systolic pulmonary artery pressure, respectively. Total pulmonary vascular resistance was estimated as: PVRmmHg·mL·min^−1=(mPAP−PCWP)/CO , wherein mPAP, mPWP, and CO are mean pulmonary artery pressure, pulmonary capillary wedge pressure, and cardiac output, respectively.

[4] = PAH rats, ~6 mg·kg^−1·day^−1 i.p. minipump, 28 days
[5] = PAH rats, ~6 mg·kg^−1·day^−1 i.p. minipump, 28 days, echocardiography
[6] = PAH rats, ~6 mg·kg^−1·day^−1 i.p. minipump, 28 days, result in words
[7] = SUL-150-treated versus vehicle-treated PAH rats

For `Cc1c(C)c2c(c(C)c1O)CC[C@](C)(C(=O)N1CCNCC1)O2` [SUL-150, (R)-(6-hydroxy-2,5,7,8-tetramethylchroman-2-yl)(piperazin-1-yl)methanone], the “right ventricular protein expression of PGC1α and mtTFA” value [1] was “did not alter”, the “right ventricular protein expression of PINK1 and Parkin” value [1] was “maintained the expression” and the Dyspnea frequency (PAH rats [2]) was 33.3 % of rats. The Edema frequency (PAH rats [2]) was 0 % of rats and 0 ^a,b % of rats, the “End weight (day 32–33)” value (PAH rats [2]) was 319.3 ± 12.0 ^a g and the “Mortality (%)” value (PAH rats [2]) was 0 (0%) ^a,b. The “number of rats with dyspnea” value (PAH rats [2]) was 2 n, the survival rate (PAH rats [2]) was 100% and the “Pulmonary artery pressure, Diastolic” value (PAH rats [3]; [4]) was 19.0 ± 5.7 mmHg. The “Pulmonary artery pressure, Mean (mPAP)” value (PAH rats [3]; [4]) was 27.7 mmHg and 27.7 ± 5.8 mmHg and 27.7 ± 5.8 ^a mmHg, the “Pulmonary wedge pressure, Mean” value (PAH rats [3]; [4]) was 4.8 ± 1.9 mmHg and the “Tricuspid valve insufficiency, Average grade (0–3)” value (PAH rats [3]; [4]) was 1.0 ± 1.0 ^a,b. For the same compound, the “Tricuspid valve insufficiency, Mild” value (PAH rats [3]; [4]) was 14.3%, the “Tricuspid valve insufficiency, Moderate” value (PAH rats [3]; [4]) was 42.9% and the “Tricuspid valve insufficiency, Severe” value (PAH rats [3]; [4]) was 0%. The “Vascular resistance, Pulmonary” value (PAH rats [3]; PAH rats, ~6 mg·kg^−1·day^−1 i.p. minipump, 28 days, (mPAP−PCWP)/CO) was 0.12 ± 0.05 mmHg·min·mL^−1, the LVIDd (PAH rats [3]; [5]) was 4.27 ± 0.46 mm and the “LVOT Pmax” value (PAH rats [3]; [5]) was 5.57 ± 3.73 mmHg. The “LVOT VTI” value (PAH rats [3]; [5]) was 6.16 ± 2.33, the “LVOT Vmax” value (PAH rats [3]; [5]) was 1.12 ± 0.39 m·s^−1 and the LVOT diameter (PAH rats [3]; [5]) was 3.37 ± 0.24 ^b mm. For the same compound, the PAAT (PAH rats [3]; [5]) was 17.07 ± 4.17 ms, the “PV Acceleration slope” value (PAH rats [3]; [5]) was 65.37 ± 19.75 and the “PV Pmax” value (PAH rats [3]; [5]) was 5.74 ± 1.50 mmHg. The “PV Vmax” value (PAH rats [3]; [5]) was 1.14 ± 0.19 m·s^−1, the RVIDd (PAH rats [3]; [5]) was 3.87 ± 1.37 ^b mm and the RVIDd/LVIDd ratio (PAH rats [3]; [5]) was 0.92 ± 0.35. The TAPSE (PAH rats [3]; [5]) was 2.90 ± 0.49 ^b mm, the cardiac output (PAH rats [3]; [6]) was “normalized” and the heart rate (PAH rats [3]; [6]) was “normalized”. The “decrease in diastolic pulmonary artery pressure compared to PAH rats” value (PAH rats [3]; [7]) was 25%, the “decrease in right ventricle inner diameter in diastole versus PAH rats” value (PAH rats [3]; [7]) was 38% and the “decrease in right ventricular pressure at diastole versus PAH rats” value (PAH rats [3]; [7]) was 52%. The “increase in stroke volume compared to vehicle-treated PAH rats” value (PAH rats [3]; [7]) was 68%.
